Measurements as given in ChEMBL document CHEMBL4828717, “Synthetic cajaninstilbene acid derivatives eradicate methicillin-resistant Staphylococcus aureus persisters and biofilms” (Eur J Med Chem, 2021).
Active and inactive are the calls of the source. No cut-off for these calls is given here.

How the values were obtained:
[1] = test system: Staphylococcus aureus; assay: Antibacterial activity against Staphylococcus aureus ATCC 25923 assessed as reduction in microbial growth after 16 to 18 hrs by microbroth dilution method; format: functional; conditions: time 16-18 hrs
[2] = test system: Staphylococcus aureus; assay: Antibacterial activity against methicillin resistant Staphylococcus aureus ATCC 43300 assessed as reduction in microbial growth after 16 to 18 hrs by microbroth dilution method; format: functional; conditions: time 16-18 hrs
[3] = test system: Staphylococcus aureus; assay: Antibacterial activity against methicillin resistant Staphylococcus aureus ATCC 52056 assessed as reduction in microbial growth after 16 to 18 hrs by microbroth dilution method; format: functional; conditions: time 16-18 hrs
[4] = test system: Staphylococcus aureus; assay: Antibacterial activity against methicillin resistant Staphylococcus aureus ATCC513045 assessed as reduction in microbial growth after 16 to 18 hrs by microbroth dilution method; format: functional; conditions: time 16-18 hrs
[5] = test system: Staphylococcus aureus; assay: Antibacterial activity against methicillin resistant Staphylococcus aureus ATCC515992 assessed as reduction in microbial growth after 16 to 18 hrs by microbroth dilution method; format: functional; conditions: time 16-18 hrs
[6] = test system: Staphylococcus aureus; assay: Antibacterial activity against methicillin resistant Staphylococcus aureus ATCC49800 assessed as reduction in microbial growth after 16 to 18 hrs by microbroth dilution method; format: functional; conditions: time 16-18 hrs
[7] = test system: Staphylococcus aureus; assay: Antibacterial activity against methicillin resistant Staphylococcus aureus ATCC48073 assessed as reduction in microbial growth after 16 to 18 hrs by microbroth dilution method; format: functional; conditions: time 16-18 hrs
[8] = test system: Staphylococcus aureus; assay: Antibacterial activity against methicillin resistant Staphylococcus aureus ATCC48966 assessed as reduction in microbial growth after 16 to 18 hrs by microbroth dilution method; format: functional; conditions: time 16-18 hrs
[9] = test system: Staphylococcus aureus; assay: Antibacterial activity against methicillin resistant Staphylococcus aureus ATCC48706 assessed as reduction in microbial growth after 16 to 18 hrs by microbroth dilution method; format: functional; conditions: time 16-18 hrs
[10] = test system: Enterococcus faecalis; assay: Antibacterial activity against Enterococcus faecalis ATCC29212 assessed as reduction in microbial growth after 16 to 18 hrs by microbroth dilution method; format: functional; conditions: ATCC 29212, time 16-18 hrs
[11] = test system: Staphylococcus aureus; assay: Antibacterial activity against methicillin resistant Staphylococcus aureus ATCC 43300 persisters assessed as reduction in colony formation at 8 ug/ml incubated for 2 hrs by colony counting method; format: functional, organism-based; conditions: dose 8.0 µg/ml
[12] = test system: Staphylococcus aureus; assay: Antibacterial activity against methicillin resistant Staphylococcus aureus ATCC 43300 persisters assessed as reduction in colony formation at 8 ug/ml incubated for 8 hrs by colony counting method; format: functional, organism-based; conditions: dose 8.0 µg/ml
[13] = test system: Staphylococcus aureus; assay: Antibacterial activity against methicillin resistant Staphylococcus aureus ATCC 43300 persisters assessed as reduction in number of bacteria at 4 times MIC incubated for 4 hrs by colony counting method; format: functional, organism-based
[14] = test system: Cell membrane; assay: Induction of cell membrane permeabilization in methicillin resistant Staphylococcus aureus ATCC 43300 assessed as fluorescence intensity at 0.5 to 2 times of MIC measured after 30 mins by propidium iodide staining based fluorescence assay; format: subcellular
[15] = test system: Cell membrane; assay: Induction of cell membrane depolarization in methicillin resistant Staphylococcus aureus ATCC 43300 measured after 60 mins by DiOC5 dye based flow analyzer
[16] = test system: Cell membrane; assay: Induction of cell membrane damage in Staphylococcus aureus ATCC 43300 at 0.5 times MIC after 90 mins by confocal laser scanning microscopy analysis; format: subcellular
[17] = test system: Cell membrane; assay: Induction of cell membrane damage in Staphylococcus aureus ATCC 43300 at 2 times MIC after 90 mins by confocal laser scanning microscopy analysis
[18] = test system: Cell membrane; assay: Induction of cell membrane damage in methicillin resistant Staphylococcus aureus ATCC 43300 assessed as increase in nucleic acid leakage by measuring increase in absorbance at 260 nm at 0.5 to 2 times MIC measured every 30 mins for 6 hrs by spectrophotometry; format: subcellular
[19] = test system: Cell membrane; assay: Induction of cell membrane damage in methicillin resistant Staphylococcus aureus ATCC 43300 assessed as increase in ATP leakage […] at 1 times MIC measured every 30 mins for 6 hrs by Bactiter-glo assay
[20] = test system: Staphylococcus aureus; assay: Inhibition of biofilm formation in methicillin-resistant Staphylococcus aureus ATCC 43300 at 1 times MIC incubated for 24 hrs by crystal violet staining based microplate reader assay; format: functional
[21] = test system: Staphylococcus aureus; assay: Inhibition of biofilm formation in methicillin-resistant Staphylococcus aureus ATCC 43300 at 4 times MIC incubated for 24 hrs by crystal violet staining based microplate reader assay; format: functional
[22] = test system: Staphylococcus aureus; assay: Synergistic antimicrobial activity against Staphylococcus aureus ATCC 43300 assessed as FICI at 1 times MIC after 24 hrs in presence of 32 ug/ml piperacillin by checkerboard assay; format: functional
[23] = test system: Staphylococcus aureus; assay: Synergistic antimicrobial activity against Staphylococcus aureus ATCC 43300 assessed as FICI at 0.5 times MIC after 24 hrs in presence of 64 ug/ml piperacillin by checkerboard assay; format: functional
[24] = test system: Staphylococcus aureus; assay: Synergistic antimicrobial activity against Staphylococcus aureus ATCC 43300 assessed as FICI at 0.25 times MIC after 24 hrs in presence of 128 ug/ml piperacillin by checkerboard assay; format: functional
[25] = test system: Staphylococcus aureus; assay: Synergistic antimicrobial activity against Staphylococcus aureus ATCC 43300 assessed as FICI at 1 times MIC after 24 hrs in presence of 8 ug/ml gentamicin by checkerboard assay; format: functional
[26] = test system: Staphylococcus aureus; assay: Synergistic antimicrobial activity against Staphylococcus aureus ATCC 43300 assessed as FICI at 0.5 times MIC after 24 hrs in presence of 16 ug/ml gentamicin by checkerboard assay; format: functional
[27] = test system: Staphylococcus aureus; assay: Synergistic antimicrobial activity against Staphylococcus aureus ATCC 43300 assessed as FICI at 2 times MIC after 24 hrs in presence of 64 ug/ml kanamycin by checkerboard assay; format: functional
[28] = test system: Staphylococcus aureus; assay: Synergistic antimicrobial activity against Staphylococcus aureus ATCC 43300 assessed as FICI at 1 times MIC after 24 hrs in presence of 128 ug/ml kanamycin by checkerboard assay; format: functional
[29] = test system: Staphylococcus aureus; assay: Synergistic antimicrobial activity against Staphylococcus aureus ATCC 43300 assessed as FICI at 0.5 times MIC after 24 hrs in presence of 128 ug/ml kanamycin by checkerboard assay; format: functional
[30] = test system: Staphylococcus aureus; assay: Antimicrobial activity against methicillin-resistant Staphylococcus aureus ATCC 43300 infected in abscesses mouse model assessed as increase in mouse survival at 50 to 200 mg/kg, sc administered every 24 hrs for 4 days; format: functional, organism-based; conditions: dose 50-200 mg/kg
[31] = Toxicity in BALB/c mouse infected with methicillin-resistant Staphylococcus aureus ATCC 43300 assessed as damage in spleen at 50 to 200 mg/kg, sc administered every 24 hrs for 4 days by H&E staining based light microscopic analysis; format: organism-based; conditions: in vivo, dose 50-200 mg/kg
[32] = Toxicity in BALB/c mouse infected with methicillin-resistant Staphylococcus aureus ATCC 43300 assessed as damage in heart at 50 to 200 mg/kg, sc administered every 24 hrs for 4 days by H&E staining based light microscopic analysis; format: organism-based; conditions: in vivo, dose 50-200 mg/kg
[33] = Toxicity in BALB/c mouse infected with methicillin-resistant Staphylococcus aureus ATCC 43300 assessed as damage in liver at 50 to 200 mg/kg, sc administered every 24 hrs for 4 days by H&E staining based light microscopic analysis; format: organism-based; conditions: in vivo, dose 50-200 mg/kg
[34] = Toxicity in BALB/c mouse infected with methicillin-resistant Staphylococcus aureus ATCC 43300 assessed as damage in kidney at 50 to 200 mg/kg, sc administered every 24 hrs for 4 days by H&E staining based light microscopic analysis; format: organism-based; conditions: in vivo, dose 50-200 mg/kg

`CC(C)=CCc1c(OCCF)cc(/C=C/c2ccc(F)cc2)c(C(=O)O)c1O` showed an MIC [1] of 2 µg/mL, an MIC [2] of 4 µg/mL and an MIC [3] of 4 µg/mL. It also gave an MIC [4] of 4 µg/mL, an MIC [5] of 4 µg/mL and an MIC [6] of 4 µg/mL. For the same compound, the MIC [7] was 4 µg/mL, the MIC [8] was 4 µg/mL and the MIC [9] was 4 µg/mL. The MIC [10] was greater than 32 µg/mL, the Activity [11] was “Active” and the Activity [12] was “Active”. The Activity [13] was “Active”, the Activity [14] was “Dose-Dependent Effect” and the Activity [15] was “Dose-Dependent Effect”. The Activity [16] was “Active”, the Activity [17] was “Active” and the Activity [18] was “Active”. For the same compound, the Activity [19] was “Active”, the “inhibition (INH)” value [20] was 50% and the “inhibition (INH)” value [21] was 90%. For the same compound, the “fractional inhibitory concentration index (FICI)” value [22] was 0.315, the “fractional inhibitory concentration index (FICI)” value [23] was 0.25 and the “fractional inhibitory concentration index (FICI)” value [24] was 0.3125. For the same compound, the “fractional inhibitory concentration index (FICI)” value [25] was 0.75, the “fractional inhibitory concentration index (FICI)” value [26] was 1.125 and the “fractional inhibitory concentration index (FICI)” value [27] was 1. The “fractional inhibitory concentration index (FICI)” value [28] was 0.75, the “fractional inhibitory concentration index (FICI)” value [29] was 1.125 and the Activity [30] was “Active”. For the same compound, the Activity [31] was “Non-Toxic”, the Activity [32] was “Non-Toxic” and the Activity [33] was “Non-Toxic”. For the same compound, the Activity [34] was “Non-Toxic”.
